From US6737383B1, “Herbicidal oxadiazolidines” (priority 1999, dated 2004)

How the values were obtained:
pigweed = experiment: Test B pre/postemergence pigweed; type: in vivo, Amaranthus retroflexus
How it was run: (§1)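 Test chemicals in a non-phytotoxic solvent mixture with surfactant were sprayed preemergence onto planted seeds and postemergence onto plants 2 to 18 cm tall (1- to 4-leaf stage). After twelve to sixteen days in a greenhouse, injury was visually rated against untreated controls from 0 (no effect) to 10 (complete control).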

morningglory = experiment: Test B pre/postemergence morningglory; type: in vivo, Ipomoea hederacea
How it was run: as §1

giant foxtail = experiment: Test B pre/postemergence giant foxtail; type: in vivo, Setaria faberii
How it was run: as §1

blackgrass = experiment: Test B pre/postemergence blackgrass; type: in vivo, Alopecurus myosuroides
How it was run: as §1

wheat = experiment: Test B pre/postemergence wheat; type: in vivo, Triticum aestivum
How it was run: as §1

wild oat = experiment: Test B pre/postemergence wild oat; type: in vivo, Avena fatua
How it was run: as §1

surinam grass = experiment: Test B pre/postemergence surinam grass; type: in vivo, Brachiaria decumbens
How it was run: as §1

velvetleaf = experiment: Test B pre/postemergence velvetleaf; type: in vivo, Abutilon theophrasti
How it was run: as §1

soybean = experiment: Test B pre/postemergence soybean; type: in vivo, Glycine max
How it was run: as §1

rape = experiment: Test B pre/postemergence rape; type: in vivo, Brassica napus
How it was run: as §1

corn = experiment: Test B pre/postemergence corn; type: in vivo, Zea mays
How it was run: as §1

bedstraw = experiment: Test B pre/postemergence bedstraw; type: in vivo, Galium aparine
How it was run: as §1

crabgrass = experiment: Test B pre/postemergence crabgrass; type: in vivo, Digitaria sanguinalis
How it was run: as §1

cocklebur = experiment: Test B pre/postemergence cocklebur; type: in vivo, Xanthium strumarium
How it was run: as §1

purple nutsedge = experiment: Test B pre/postemergence purple nutsedge; type: in vivo, Cyperus rotundus
How it was run: as §1

[1] = Postemergence, Rate 62 g/ha, scale 0 to 10, 0 is no effect, 10 is complete control
[2] = Postemergence, Rate 250 g/ha, scale 0 to 10, 0 no effect, 10 complete control
[3] = Preemergence, Rate 62 g/ha, scale 0 to 10 (0 no effect, 10 complete control)
[4] = Preemergence, Rate 125 g/ha, scale 0 to 10 (0 no effect, 10 complete control)
[5] = Preemergence, Rate 250 g/ha, scale of 0 to 10 where 0 is no effect and 10 is complete control
[6] = Preemergence, Rate 500 g/ha, scale 0 (no effect) to 10 (complete control)
[7] = Rate 125 g/ha, Postemergence, scale 0 to 10, 0 no effect, 10 complete control
[8] = Rate 500 g/ha, Postemergence, scale 0 to 10, 0 no effect, 10 complete control

SMILES: Cc1ccccc1-n1c(=O)on(C(=O)N(c2cc(F)cc(F)c2)C(C)C)c1=O [Compound 67]
- Redroot pigweed plant response rating (pigweed; [1]): 0
- Redroot pigweed plant response rating (pigweed; [2]): 0
- Redroot pigweed plant response rating (pigweed; [3]): 4
- Plant response rating, Redroot pigweed (pigweed; [4]): 4
- Plant response rating, Redroot pigweed (pigweed; [5]): 9
- Redroot pigweed plant response rating (pigweed; [6]): 10
- Redroot pigweed plant response rating (pigweed; [7]): 0
- Redroot pigweed plant response rating (pigweed; [8]): 4
- Morningglory plant response rating (morningglory; [1]): 0
- Morningglory plant response rating (morningglory; [2]): 2
- Morningglory plant response rating (morningglory; [3]): 0
- Plant response rating, Morningglory (morningglory; [4]): 0
- Plant response rating, Morningglory (morningglory; [5]): 0
- Morningglory plant response rating (morningglory; [6]): 0
- Morningglory plant response rating (morningglory; [7]): 2
- Morningglory plant response rating (morningglory; [8]): 6
- Giant foxtail plant response rating (giant foxtail; [1]): 0
- Giant foxtail plant response rating (giant foxtail; [2]): 0
- Giant foxtail plant response rating (giant foxtail; [3]): 3
- Plant response rating, Giant foxtail (giant foxtail; [4]): 7
- Plant response rating, Giant foxtail (giant foxtail; [5]): 8
- Giant foxtail plant response rating (giant foxtail; [6]): 8
- Giant foxtail plant response rating (giant foxtail; [7]): 0
- Giant foxtail plant response rating (giant foxtail; [8]): 0
- Blackgrass plant response rating (blackgrass; [1]): 0
- Blackgrass plant response rating (blackgrass; [2]): 0
- Blackgrass plant response rating (blackgrass; [3]): 0
- Plant response rating, Blackgrass (blackgrass; [4]): 0
- Plant response rating, Blackgrass (blackgrass; [5]): 2
- Blackgrass plant response rating (blackgrass; [6]): 2
- Blackgrass plant response rating (blackgrass; [7]): 0
- Blackgrass plant response rating (blackgrass; [8]): 0
- Wheat plant response rating (wheat; [1]): 0
- Wheat plant response rating (wheat; [2]): 0
- Wheat plant response rating (wheat; [3]): 0
- Plant response rating, Wheat (wheat; [4]): 0
- Plant response rating, Wheat (wheat; [5]): 0
- Wheat plant response rating (wheat; [6]): 0
- Wheat plant response rating (wheat; [7]): 0
- Wheat plant response rating (wheat; [8]): 0
- Wild oats plant response rating (wild oat; [1]): 0
- Wild oats plant response rating (wild oat; [2]): 0
- Wild oats plant response rating (wild oat; [3]): 0
- Plant response rating, Wild oats (wild oat; [4]): 0
- Plant response rating, Wild oats (wild oat; [5]): 0
- Wild oats plant response rating (wild oat; [6]): 2
- Wild oats plant response rating (wild oat; [7]): 0
- Wild oats plant response rating (wild oat; [8]): 0
- B. signalgrass plant response rating (surinam grass; [1]): 0
- B. signalgrass plant response rating (surinam grass; [2]): 0
- B. signalgrass plant response rating (surinam grass; [3]): 0
- Plant response rating, B. signalgrass (surinam grass; [4]): 0
- Plant response rating, B. signalgrass (surinam grass; [5]): 0
- B. signalgrass plant response rating (surinam grass; [6]): 2
- B. signalgrass plant response rating (surinam grass; [7]): 0
- B. signalgrass plant response rating (surinam grass; Rate 500 g/ha, Postemergence, scale of 0 to 10 where 0 is no effect and 10 is complete control): 0
- Velvetleaf plant response rating (velvetleaf; [1]): 0
- Velvetleaf plant response rating (velvetleaf; [2]): 0
- Velvetleaf plant response rating (velvetleaf; [3]): 0
- Plant response rating, Velvetleaf (velvetleaf; [4]): 0
- Plant response rating, Velvetleaf (velvetleaf; [5]): 0
- Velvetleaf plant response rating (velvetleaf; [6]): 0
- Velvetleaf plant response rating (velvetleaf; [7]): 0
- Velvetleaf plant response rating (velvetleaf; [8]): 0
- Soybean plant response rating (soybean; [1]): 0
- Soybean plant response rating (soybean; [2]): 1
- Soybean plant response rating (soybean; [3]): 0
- Plant response rating, Soybean (soybean; [4]): 0
- Plant response rating, Soybean (soybean; [5]): 0
- Soybean plant response rating (soybean; [6]): 0
- Soybean plant response rating (soybean; [7]): 1
- Soybean plant response rating (soybean; [8]): 1
- Rape plant response rating (rape; [1]): 0
- Rape plant response rating (rape; [2]): 0
- Rape plant response rating (rape; [3]): 0
- Plant response rating, Rape (rape; [4]): 0
- Plant response rating, Rape (rape; [5]): 0
- Rape plant response rating (rape; [6]): 0
- Rape plant response rating (rape; [7]): 0
- Rape plant response rating (rape; [8]): 2
- Corn plant response rating (corn; [1]): 0
- Corn plant response rating (corn; [2]): 0
- Corn plant response rating (corn; [3]): 0
- Plant response rating, Corn (corn; [4]): 0
- Plant response rating, Corn (corn; [5]): 0
- Corn plant response rating (corn; [6]): 0
- Corn plant response rating (corn; [7]): 0
- Corn plant response rating (corn; [8]): 0
- Bedstraw plant response rating (bedstraw; [1]): 0
- Bedstraw plant response rating (bedstraw; [2]): 7
- Bedstraw plant response rating (bedstraw; [3]): 0
- Plant response rating, Bedstraw (bedstraw; [4]): 0
- Plant response rating, Bedstraw (bedstraw; [5]): 0
- Bedstraw plant response rating (bedstraw; [6]): 0
- Bedstraw plant response rating (bedstraw; [7]): 5
- Bedstraw plant response rating (bedstraw; [8]): 8
- Crabgrass plant response rating (crabgrass; [1]): 0
- Crabgrass plant response rating (crabgrass; [2]): 0
- Crabgrass plant response rating (crabgrass; [3]): 2
- Plant response rating, Crabgrass (crabgrass; [4]): 4
- Plant response rating, Crabgrass (crabgrass; [5]): 4
- Crabgrass plant response rating (crabgrass; [6]): 7
- Crabgrass plant response rating (crabgrass; [7]): 0
- Crabgrass plant response rating (crabgrass; [8]): 0
- Cocklebur plant response rating (cocklebur; [1]): 0
- Cocklebur plant response rating (cocklebur; [2]): 1
- Cocklebur plant response rating (cocklebur; [3]): 0
- Plant response rating, Cocklebur (cocklebur; [4]): 0
- Plant response rating, Cocklebur (cocklebur; [5]): 0
- Cocklebur plant response rating (cocklebur; [6]): 0
- Cocklebur plant response rating (cocklebur; [7]): 0
- Cocklebur plant response rating (cocklebur; [8]): 1
- Nutsedge plant response rating (purple nutsedge; [1]): 0
- Nutsedge plant response rating (purple nutsedge; [2]): 0
- Nutsedge plant response rating (purple nutsedge; [3]): 0
- Plant response rating, Nutsedge (purple nutsedge; [4]): 0
- Plant response rating, Nutsedge (purple nutsedge; [5]): 0
- Nutsedge plant response rating (purple nutsedge; [6]): 0
- Nutsedge plant response rating (purple nutsedge; [7]): 0
- Nutsedge plant response rating (purple nutsedge; [8]): 0
